In one assay the test system is SARS-CoV-2 strain USA-WA1/2020. The assay is described as follows: microbe, parasite or virus in culture. It counts as cell-based. The note with it: Severe acute respiratory syndrome coronavirus 2, HeLa-ACE2, 24 h, HeLa-ACE2 cells, SARS-CoV-2 infection, 24 h; bound printed in cell; read-out: EC50, uM (Hela).
One may read the EC50 as the concentration that produces a half-maximal response. As to `O=C(Nc1ccccc1F)C(=O)NC1(C(=O)N[C@@H](C[C@@H]2CCNC2=O)C(=O)COC(F)(F)F)CCOCC1` [Compound 257, N1-(2-fluorophenyl)-N2-(4-(((S)-3-oxo-1-((S)-2-oxopyrrolidin-3-yl)-4-(trifluoromethoxy)butan-2-yl)carbamoyl)-tetrahydro-2H-pyran-4-yl)oxalamide], the EC50 is greater than 1 µM.

Still in this assay, the particulars now being: Severe acute respiratory syndrome coronavirus 2, HeLa-ACE2, 24 h, HeLa-ACE2 cells, SARS-CoV-2 infection, 24 h; class symbols; read-out: EC50, uM (Hela).
Take `CC(C)C[C@H](NC(=O)C(=O)Nc1ccccc1Cl)C(=O)N[C@@H](C[C@@H]1CCNC1=O)C(=O)COc1c(F)c(F)cc(F)c1F` [Compound 46, N1-(2-chlorophenyl)-N2-((S)-4-methyl-1-oxo-1-(((S)-3-oxo-1-((S)-2-oxopyrrolidin-3-yl)-4-(2,3,5,6-tetrafluorophenoxy)butan-2-yl)amino)pentan-2-yl)oxalamide]: the EC50 was less than 0.05 µM. Still for that read-out and setting: for `CC(C)C[C@H](NC(=O)C(=O)NC1CC2(COC2)C1)C(=O)N[C@@H](C[C@@H]1CCNC1=O)C(=O)COC(F)(F)F` [Compound 240, N1-((S)-4-methyl-1-oxo-1-(((S)-3-oxo-1-((S)-2-oxopyrrolidin-3-yl)-4-(trifluoromethoxy)butan-2-yl)amino)pentan-2-yl)-N2-(2-oxaspiro[3.3]heptan-6-yl)oxalamide] the value was 0.05 to 0.2 µM; for `Cc1ccccc1NC(=O)C(=O)N[C@@H](CC1CC1)C(=O)N[C@@H](C[C@@H]1CCNC1=O)C(=O)COc1c(F)c(F)cc(F)c1F` [Compound 116, N1-((S)-3-cyclopropyl-1-oxo-1-(((S)-3-oxo-1-((S)-2-oxopyrrolidin-3-yl)-4-(2,3,5,6-tetrafluorophenoxy)butan-2-yl)amino)propan-2-yl)-N2-(o-tolyl)oxalamide], less than 0.05 µM; for `O=C(Nc1ccccc1F)C(=O)N1C[C@@H]2CCC[C@@H]2[C@H]1C(=O)N[C@@H](C[C@@H]1CCNC1=O)C(=O)COC(F)(F)F` [Compound 256, (1S,3aR,6aS)-2-(2-((2-fluorophenyl)amino)-2-oxoacetyl)-N—((S)-3-oxo-1-((S)-2-oxopyrrolidin-3-yl)-4-(trifluoromethoxy)butan-2-yl)octahydrocyclopenta[c]pyrrole-1-carboxamide], less than 0.05 µM. The same measure, in the same setting: for `CC(C)C[C@H](NC(=O)C1COCCO1)C(=O)N[C@@H](C[C@@H]1CCNC1=O)C(=O)COC(F)(F)F` (stereo partly drawn) [Compound 247, N-((S)-4-methyl-1-oxo-1-(((S)-3-oxo-1-((S)-2-oxopyrrolidin-3-yl)-4-(trifluoromethoxy)butan-2-yl)amino)pentan-2-yl)-1,4-dioxane-2-carboxamide] the value was 0.05 to 0.2 µM; for `O=C1NCC[C@H]1C[C@H](NC(=O)[C@@H]1CC2(CC2)CN1C(=O)C(O)CCC(F)(F)F)C(=O)COC(F)(F)F` (stereo partly drawn) [Compound 395, (6S)-N-((S)-3-oxo-1-((S)-2-oxopyrrolidin-3-yl)-4-(trifluoromethoxy)butan-2-yl)-5-(5,5,5-trifluoro-2-hydroxypentanoyl)-5-azaspiro[2.4]heptane-6-carboxamide], 0.05 to 0.2 µM. The same measure, in the same setting: for `CC(C)C[C@H](NC(=O)C(=O)NC12CC(C1)C2)C(=O)N[C@@H](C[C@@H]1CCNC1=O)C(=O)COC(F)(F)F` [Compound 191, N1-(bicyclo[1.1.1]-pentan-1-yl)-N2-((S)-4-methyl-1-oxo-1-(((S)-3-oxo-1-((S)-2-oxopyrrolidin-3-yl)-4-(trifluoromethoxy)butan-2-yl)amino)pentan-2-yl)oxalamide] the value was less than 0.05 µM. Take `O=C1NCC[C@H]1C[C@H](NC(=O)[C@@H]1[C@H]2CCC[C@H]2CN1C(=O)C12CCC(CC1)O2)C(=O)COC(F)(F)F` [Compound 308, (1S,3aR,6aS)-2-(7-oxabicyclo[2.2.1]-heptane-1-carbonyl)-N-((S)-3-oxo-1-((S)-2-oxopyrrolidin-3-yl)-4-(trifluoromethoxy)butan-2-yl)octahydrocyclo-penta[c]pyrrole-1-carboxamide]: the EC50 lay within 0.05 to 0.2 µM. Same read-out and setting: next, `CC[C@@H](C)[C@@H](O)C(=O)N1CC2(CC2)C[C@H]1C(=O)N[C@@H](C[C@@H]1CCNC1=O)C(=O)COC(F)(F)F` [Compound 380, (S)-5-((2R,3R)-2-hydroxy-3-methylpentanoyl)-N-((S)-3-oxo-1-((S)-2-oxopyrrolidin-3-yl)-4-(trifluoromethoxy)butan-2-yl)-5-azaspiro[2.4]-heptane-6-carboxamide]: 0.05 to 0.2 µM; `CC(C)C[C@H](NC(=O)C(=O)NC1(C)CC1)C(=O)N[C@@H](C[C@@H]1CCNC1=O)C(=O)COC(F)(F)F` [Compound 217, N1-((S)-4-methyl-1-oxo-1-(((S)-3-oxo-1-((S)-2-oxopyrrolidin-3-yl)-4-(trifluoromethoxy)butan-2-yl)amino)pentan-2-yl)-N2-(1-methylcyclopropyl)-oxalamide]: less than 0.05 µM. Regarding `CC(C)C[C@H](NC(=O)C(=O)Nc1cccc2ccccc12)C(=O)N[C@@H](C[C@@H]1CCNC1=O)C(=O)COc1c(F)c(F)cc(F)c1F` [Compound 51, N1-((S)-4-methyl-1-oxo-1-(((S)-3-oxo-1-((S)-2-oxopyrrolidin-3-yl)-4-(2,3,5,6-tetrafluorophenoxy)butan-2-yl)amino)pentan-2-yl)-N2-(naphthalen-1-yl)oxalamide], the 50% effective concentration (EC50) is less than 0.05 µM.

The same assay, now with this note: Severe acute respiratory syndrome coronavirus 2, HeLa-ACE2, 24 h, HeLa-ACE2 cells, SARS-CoV-2 infection, 24 h; read-out: EC50, uM (Hela).
In the case of `CC(C)(C)C[C@H](NC(=O)C(=O)Nc1ccccc1F)C(=O)N[C@@H](C[C@@H]1CCNC1=O)C(=O)COC(F)(F)F` [Compound 528, N1-((S)-4,4-dimethyl-1-oxo-1-(((S)-3-oxo-1-((S)-2-oxopyrrolidin-3-yl)-4-(trifluoromethoxy)butan-2-yl)amino)pentan-2-yl)-N2-(2-fluorophenyl)-oxalamide], the EC50 is less than 0.05 µM.

Consider `CC(C)(C)[C@H](NC(=O)OC1CC1)C(=O)N1C[C@H]2[C@@H]([C@H]1C(=O)N[C@@H](C[C@@H]1CCNC1=O)C(=O)COC(F)(F)F)C2(C)C` [Compound 447, cyclopropyl ((S)-1-((1R,2S,5S)-6,6-dimethyl-2-(((S)-3-oxo-1-((S)-2-oxopyrrolidin-3-yl)-4-(trifluoromethoxy)butan-2-yl)carbamoyl)-3-azabicyclo[3.1.0]-hexan-3-yl)-3,3-dimethyl-1-oxobutan-2-yl)carbamate], for which the EC50 is less than 0.05 µM. On the same count and under the same terms, next, `O=C1NCC[C@H]1C[C@H](NC(=O)[C@@H]1CC2(CC2)CN1C(=O)c1ccccc1)C(=O)COC(F)(F)F` [Compound 694, (S)-5-benzoyl-N-((S)-3-oxo-1-((S)-2-oxopyrrolidin-3-yl)-4-(trifluoromethoxy)butan-2-yl)-5-azaspiro[2.4]heptane-6-carboxamide]: 0.05 to 0.2 µM; `Cc1ccccc1NC(=O)C(=O)N1C[C@@H]2CCC[C@@H]2[C@H]1C(=O)N[C@@H](C[C@@H]1CCNC1=O)C(=O)COC(F)(F)F` [Compound 513, (1S,3aR,6aS)-N-((S)-3-oxo-1-((S)-2-oxopyrrolidin-3-yl)-4-(trifluoromethoxy)butan-2-yl)-2-(2-oxo-2-(o-tolylamino)acetyl)-octahydrocyclo-penta[c]pyrrole-1-carboxamide]: less than 0.05 µM. Consider `CC(C)OCC(=O)N1CC2(CC2)C[C@H]1C(=O)N[C@@H](C[C@@H]1CCNC1=O)C(=O)COC(F)(F)F` [Compound 647, (888S)-5-(2-isopropoxyacetyl)-N-((S)-3-oxo-1-((S)-2-oxopyrrolidin-3-yl)-4-(trifluoromethoxy)butan-2-yl)-5-azaspiro[2.4]heptane-6-carboxamide], for which the EC50 lay within 0.05 to 0.2 µM. Consider `O=C1NCC[C@H]1C[C@H](NC(=O)[C@@H]1CC2(CC2)CN1C(=O)C1CCCC1)C(=O)COC(F)(F)F` [Compound 723, (S)-5-(cyclopentanecarbonyl)-N-((S)-3-oxo-1-((S)-2-oxopyrrolidin-3-yl)-4-(trifluoromethoxy)butan-2-yl)-5-azaspiro[2.4]heptane-6-carboxamide], for which the EC50 was in the range of 0.05 to 0.2 µM.

For `O=C1NCC[C@H]1C[C@H](NC(=O)[C@@H]1CC2(CC2)CN1C(=O)CNS(=O)(=O)Nc1ccccc1)C(=O)COC(F)(F)F` [Compound 669, (S)-N-((S)-3-oxo-1-((S)-2-oxopyrrolidin-3-yl)-4-(trifluoromethoxy)butan-2-yl)-5-((N-phenylsulfamoyl)glycyl)-5-azaspiro[2.4]heptane-6-carboxamide], the EC50 lay within 0.05 to 0.2 µM. Same read-out and setting: next, `CC(C)(NC(=O)C(=O)N1C[C@H]2[C@@H]([C@H]1C(=O)N[C@@H](C[C@@H]1CCNC1=O)C(=O)COC(F)(F)F)C2(C)C)C(F)F` [Compound 555, (1R,2S,5S)-3-(2-((l,l-difluoro-2-methylpropan-2-yl)amino)-2-oxoacetyl)-6,6-dimethyl-N-((S)-3-oxo-1-((S)-2-oxopyrrolidin-3-yl)-4-(trifluoromethoxy)butan-2-yl)-3-azabicyclo-[3.1.0]hexane-2-carboxamide]: less than 0.05 µM; `O=C1NCC[C@H]1C[C@H](NC(=O)[C@@H]1[C@H]2CCC[C@H]2CN1C(=O)c1noc2ccccc12)C(=O)COC(F)(F)F` [Compound 557, (1S,3aR,6aS)-2-(benzo[d]isoxazole-3-carbonyl)-N-((S)-3-oxo-1-((S)-2-oxopyrrolidin-3-yl)-4-(trifluoromethoxy)butan-2-yl)octahydro-cyclopenta[c]pyrrole-1-carboxamide]: less than 0.05 µM. On the same count and under the same terms, for `CNC(=O)C(=O)N[C@@H](Cc1cccc(F)c1)C(=O)N[C@@H](C[C@@H]1CCNC1=O)C(=O)COC(F)(F)F` [Compound 677, N1-((S)-3-(3-fluorophenyl)-1-oxo-1-(((S)-3-oxo-1-((S)-2-oxopyrrolidin-3-yl)-4-(trifluoromethoxy)butan-2-yl)amino)propan-2-yl)-N2-methyloxalamide] the value was less than 0.05 µM.

The assay is the same for the next values; noted with them: Severe acute respiratory syndrome coronavirus 2, HeLa-ACE2, 24 h; read-out: EC50, uM (Hela).
For `CC(C)C[C@H](NC(=O)C(=O)Nc1ccccc1F)C(=O)N[C@@H](C[C@@H]1CCNC1=O)C(=O)COP(C)(=O)c1ccccc1` (stereo partly drawn) [Compound 651, (S)-3-((S)-2-(2-((2-fluorophenyl)amino)-2-oxoacetamido)-4-methylpentanamido)-2-oxo-4-((S)-2-oxopyrrolidin-3-yl)butyl methyl(phenyl)phosphinate], the EC50 is 0.05 to 0.2 µM.

Source of the values: patent US11708348B2, “Protease inhibitors for treatment of coronavirus infections” (The Scripps Research Institute, priority 2021, dated 2023).
